The target in the assay is T1, recombinant full-length human prolyl endopeptidase (PREP) (Homo sapiens, UniProt P48147).
T1 construct: To recombinant full-length human prolyl endopeptidase (PREP, R&D-Systems, 4308-SE); purchased R&D-Systems 4308-SE
T1 sequence (P48147 1-710): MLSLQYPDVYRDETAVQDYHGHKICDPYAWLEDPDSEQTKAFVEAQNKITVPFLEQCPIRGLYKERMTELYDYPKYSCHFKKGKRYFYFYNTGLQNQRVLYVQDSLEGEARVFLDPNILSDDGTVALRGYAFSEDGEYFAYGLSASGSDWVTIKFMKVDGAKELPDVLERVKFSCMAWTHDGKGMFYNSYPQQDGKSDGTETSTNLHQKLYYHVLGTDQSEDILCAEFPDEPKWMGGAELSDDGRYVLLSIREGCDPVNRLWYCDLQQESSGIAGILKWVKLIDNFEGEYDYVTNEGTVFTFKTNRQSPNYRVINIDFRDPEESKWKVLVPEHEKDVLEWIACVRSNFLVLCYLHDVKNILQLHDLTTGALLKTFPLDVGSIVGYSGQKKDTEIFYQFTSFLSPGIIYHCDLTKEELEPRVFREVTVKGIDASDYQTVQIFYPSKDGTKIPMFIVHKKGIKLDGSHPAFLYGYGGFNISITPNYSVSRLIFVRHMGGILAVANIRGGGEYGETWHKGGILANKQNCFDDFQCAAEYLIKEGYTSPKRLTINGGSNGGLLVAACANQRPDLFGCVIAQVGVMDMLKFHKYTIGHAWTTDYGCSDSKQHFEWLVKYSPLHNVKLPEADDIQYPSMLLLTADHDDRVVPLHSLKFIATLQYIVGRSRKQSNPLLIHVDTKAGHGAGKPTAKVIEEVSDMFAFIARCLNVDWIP
In words: Biochemical human prolyl endopeptidase (PREP) assay with fluorescently labelled substrate. Conditions: substrate Z-Gly-Pro-AMC 50 μM, 32° C., 60 min; some as mean values from multiple independent determinations. In outline:
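Initial rates of fluorescence increase from 50 μM Z-Gly-Pro-AMC cleavage (ex 360/em 465 nm, 60 min, 32° C) give percent PREP activity versus no-compound control, and IC50 is interpolated. Enzyme used at 0.4 nM (final, example) in Tris pH 7.5 with EDTA, GSH, BSA and Brij-35; compounds span 1 nM to 30 μM.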
A word on the IC50: it is the midpoint of a concentration-inhibition curve. Regarding `O=C([C@@H]1CCCc2nn(Cc3ccc(F)c(F)c3)c(=O)n21)N1CC(F)C1` [Example 469, (5S)-2-(3,4-Difluorobenzyl)-5-[(3-fluoroazetidin-1-yl)carbonyl]-5,6,7,8-tetrahydro[1,2,4]triazolo[4,3-a]pyridin-3(2H)-one], the half-maximal inhibitory concentration (IC50) turned out to be 795 pM.

On to `O=C([C@@H]1CCCc2nn(Cc3ccc(C(F)(F)F)c(F)c3)c(=O)n21)N1CCC(F)(F)C1` [Example 470, (5S)-5-[(3,3-Difluoropyrrolidin-1-yl)carbonyl]-2-[3-fluoro-4-(trifluoromethyl)benzyl]-5,6,7,8-tetrahydro[1,2,4]triazolo[4,3-a]pyridin-3(2H)-one], for which the IC50 came to 820 pM.

As for `O=C([C@@H]1CCCc2nn(Cc3ccc(C(F)(F)F)c(F)c3)c(=O)n21)N1CC[C@H](F)C1` [Example 471, (5S)-5-{[(3S)-3-Fluoropyrrolidin-1-yl]carbonyl}-2-[3-fluoro-4-(trifluoromethyl)benzyl]-5,6,7,8-tetrahydro[1,2,4]triazolo[4,3-a]pyridin-3(2H)-one], the IC50 turned out to be 425 pM.

As for `O=C([C@@H]1CCCc2nn(Cc3ccc(C(F)(F)F)c(F)c3)c(=O)n21)N1C[C@@H](F)[C@@H](F)C1` [Example 472, (5S)-5-{[(3R,4S)-3,4-Difluoropyrrolidin-1-yl]carbonyl}-2-[3-fluoro-4-(trifluoromethyl)benzyl]-5,6,7,8-tetrahydro[1,2,4]triazolo[4,3-a]pyridin-3(2H)-one], the IC50 was 245 pM.

In the case of `O=C([C@@H]1CCCc2nn(Cc3ccc(C(F)(F)F)c(F)c3)c(=O)n21)N1CC(F)C1` [Example 473, (5S)-5-[(3-Fluoroazetidin-1-yl)carbonyl]-2-[3-fluoro-4-(trifluoromethyl)benzyl]-5,6,7,8-tetrahydro[1,2,4]triazolo[4,3-a]pyridin-3(2H)-one], the half-maximal inhibitory concentration (IC50) turned out to be 170 pM.

`O=C([C@@H]1CCCc2nn(Cc3ccc(F)cc3Cl)c(=O)n21)N1C[C@@H](F)[C@@H](F)C1` [Example 474, (5S)-2-(2-Chloro-4-fluorobenzyl)-5-{[(3R,4S)-3,4-difluoropyrrolidin-1-yl]carbonyl}-5,6,7,8-tetrahydro[1,2,4]triazolo[4,3-a]pyridin-3(2H)-one]: the IC50 turned out to be 360 pM.

As for `O=C([C@@H]1CCCc2nn(Cc3ccc(F)cc3Cl)c(=O)n21)N1CC[C@H](F)C1` [Example 475, (5S)-2-(2-Chloro-4-fluorobenzyl)-5-{[(3S)-3-fluoropyrrolidin-1-yl]carbonyl}-5,6,7,8-tetrahydro[1,2,4]triazolo[4,3-a]pyridin-3(2H)-one], the 50% inhibitory concentration (IC50) is 330 pM.

In the case of `O=C([C@@H]1CCCc2nn(Cc3ccc(F)cc3Cl)c(=O)n21)N1CC(F)C1` [Example 476, (5S)-2-(2-Chloro-4-fluorobenzyl)-5-[(3-fluoroazetidin-1-yl)carbonyl]-5,6,7,8-tetrahydro[1,2,4]triazolo[4,3-a]pyridin-3(2H)-one], the IC50 came out at 780 pM.

`O=C([C@@H]1CCCc2nn(Cc3ccc(F)cc3Cl)c(=O)n21)N1CCC(F)(F)C1` [Example 477, (5S)-2-(2-Chloro-4-fluorobenzyl)-5-[(3,3-difluoropyrrolidin-1-yl)carbonyl]-5,6,7,8-tetrahydro[1,2,4]triazolo[4,3-a]pyridin-3(2H)-one]: the IC50 worked out at 210 pM.

Take `O=C([C@@H]1CCCc2nn(Cc3ccnc(C(F)(F)F)c3F)c(=O)n21)N1CC[C@@H](F)C1` [Example 478, (5S)-5-{[(3R)-3-Fluoropyrrolidin-1-yl]carbonyl}-2-{[3-fluoro-2-(trifluoromethyl)pyridin-4-yl]methyl}-5,6,7,8-tetrahydro[1,2,4]triazolo[4,3-a]pyridin-3(2H)-one]: the IC50 was determined as 2650 pM.

As to `O=C([C@@H]1CCCc2nn(Cc3ccnc(C(F)(F)F)c3F)c(=O)n21)N1CC[C@H](O)C1` [Example 479, (5S)-2-{[3-Fluoro-2-(trifluoromethyl)pyridin-4-yl]methyl}-5-{[(3S)-3-hydroxypyrrolidin-1-yl]carbonyl}-5,6,7,8-tetrahydro[1,2,4]triazolo[4,3-a]pyridin-3(2H)-one], the 50% inhibitory concentration (IC50) is 25000 pM.

As for `O=C([C@@H]1CCCc2nn(Cc3ccnc(C(F)(F)F)c3F)c(=O)n21)N1C[C@@H](F)[C@@H](F)C1` [Example 480, (5S)-5-{[(3R,4S)-3,4-Difluoropyrrolidin-1-yl]carbonyl}-2-{[3-fluoro-2-(trifluoromethyl)pyridin-4-yl]methyl}-5,6,7,8-tetrahydro[1,2,4]triazolo[4,3-a]pyridin-3(2H)-one], the IC50 came to 520 pM.

`O=C([C@@H]1CCCc2nn(Cc3ccnc(C(F)(F)F)c3F)c(=O)n21)N1CC(O)C1` [Example 481, (5S)-2-{[3-Fluoro-2-(trifluoromethyl)pyridin-4-yl]methyl}-5-[(3-hydroxyazetidin-1-yl)carbonyl]-5,6,7,8-tetrahydro[1,2,4]triazolo[4,3-a]pyridin-3(2H)-one]: the IC50 was found to be 27500 pM.

Turning to `O=C([C@@H]1CCCc2nn(Cc3ccnc(C(F)(F)F)c3F)c(=O)n21)N1CCC(F)(F)C1` [Example 482, (5S)-5-[(3,3-Difluoropyrrolidin-1-yl)carbonyl]-2-{[3-fluoro-2-(trifluoromethyl)pyridin-4-yl]methyl}-5,6,7,8-tetrahydro[1,2,4]triazolo[4,3-a]pyridin-3(2H)-one], the half-maximal inhibitory concentration (IC50) came to 2800 pM.

For `O=C([C@@H]1CCCc2nn(Cc3ccnc(C(F)(F)F)c3F)c(=O)n21)N1CC(F)C1` [Example 483, (5S)-5-[(3-Fluoroazetidin-1-yl)carbonyl]-2-{[3-fluoro-2-(trifluoromethyl)pyridin-4-yl]methyl}-5,6,7,8-tetrahydro[1,2,4]triazolo[4,3-a]pyridin-3(2H)-one], the IC50 amounted to 2100 pM.

In the case of `O=C([C@@H]1CCCc2nn(Cc3ccnc(C(F)(F)F)c3F)c(=O)n21)N1CC[C@H](F)C1` [Example 484, (5S)-5-{[(3S)-3-Fluoropyrrolidin-1-yl]carbonyl}-2-{[3-fluoro-2-(trifluoromethyl)pyridin-4-yl]methyl}-5,6,7,8-tetrahydro[1,2,4]triazolo[4,3-a]pyridin-3(2H)-one], the IC50 was 295 pM.

On to `O=C([C@@H]1CCCc2nn(Cc3ccnc(C(F)(F)F)c3F)c(=O)n21)N1CCSC1` [Example 485, (5S)-2-{[3-Fluoro-2-(trifluoromethyl)pyridin-4-yl]methyl}-5-(1,3-thiazolidin-3-ylcarbonyl)-5,6,7,8-tetrahydro[1,2,4]triazolo[4,3-a]pyridin-3(2H)-one], for which the IC50 is 4300 pM.

Take `O=C([C@@H]1CCCc2nn(Cc3ccc(F)cc3F)c(=O)n21)N1CC(F)C1` [Example 486, (5S)-2-(2,4-Difluorobenzyl)-5-[(3-fluoroazetidin-1-yl)carbonyl]-5,6,7,8-tetrahydro[1,2,4]triazolo[4,3-a]pyridin-3(2H)-one]: the IC50 is 465 pM.

With `O=C([C@@H]1CCCc2nn(Cc3ccc(F)cc3F)c(=O)n21)N1CCC(F)(F)C1` [Example 487, (5S)-2-(2,4-Difluorobenzyl)-5-[(3,3-difluoropyrrolidin-1-yl)carbonyl]-5,6,7,8-tetrahydro[1,2,4]triazolo[4,3-a]pyridin-3(2H)-one], the IC50 worked out at 725 pM.

As to `O=C([C@@H]1CCCc2nn(Cc3ccc(F)cc3F)c(=O)n21)N1CC[C@H](F)C1` [Example 488, (5S)-2-(2,4-Difluorobenzyl)-5-{[(3S)-3-fluoropyrrolidin-1-yl]carbonyl}-5,6,7,8-tetrahydro[1,2,4]triazolo[4,3-a]pyridin-3(2H)-one], the IC50 came to 150 pM.

For the origin of these results see patent publication US10722501B2 (BAYER AKTIENGESELLSCHAFT, priority 2016, dated 2020).
